According to publication PMC8752738, “A propolis-derived small molecule ameliorates metabolic syndrome in obese mice by targeting the CREB/CRTC2 transcriptional complex” (Nature Communications, 2022):
Values joined by “and” are separate entries in the source; they are usually repeats but may differ in a detail not shown here. Equal entries are not always repeated.

Legend:
[1] = Blood chemistry (plasma hormones by ELISA); assay type: in vivo, mouse
Protocol: The plasma hormone levels of insulin and ghrelin were measured by ELISA kits from Millipore, glucagon and leptin were determined by ELISA kits from R&D.

[2] = test system: primary hepatocytes; assay: Glucose production assay; assay type: cell-based, mouse
Protocol: Primary hepatocytes were exposed to propolis, APC or vehicle control for 1-h prior to 4-h stimulation with glucagon, and then incubated in no-glucose no-phenol-red DMEM (Sigma) supplied with 2 mM sodium pyruvate (Sigma) and 10 mM sodium lactate (Sigma) for 8-h. Glucose levels in the media were detected using a GO kit (Sigma).

[3] = Glucose, insulin, and pyruvate tolerance tests; assay type: in vivo, mouse; design: AUC of IGTT, Total Area / AUC analysis of ITT, Total Area / AUC of ITT, group mean / AUC of PTT, group mean / IGTT, Mean Diff. APC - VEH / IGTT, group mean (Mean 1, APC): unit not given beside the values; conditions: for blood glucose, PTT in DIO, group mean / blood glucose, IGTT, mean: N=7; for blood glucose: OGTT in db/db
Protocol: After overnight fasting, mice were i.p. injected or treated orally with D-glucose (1–2 g/kg) for glucose-tolerance tests (IGTT or OGTT) or injecting with sodium pyruvate (1–2 g/kg) for pyruvate tolerance tests (PTT). Insulin-tolerance tests (ITT) were performed by i.p. injection of insulin (1 U/kg) 2-h after food removal. […]

[4] = DIO mice, APC 10mg/kg, group mean, n=6
[5] = DIO mice, APC 10mg/kg, individual mouse
[6] = DIO mice, APC 20mg/kg, individual mouse
[7] = DIO and db/db mice, i.p. 20 mg/kg, 5 weeks

**Q.** What does the source list for CC(C)=CCc1cc(C=CC(=O)O)cc(CC=C(C)C)c1O [APC, 3,5-diprenyl-4-hydroxycinnamic acid]?
**A.** plasma insulin and glucagon levels ([1]; DIO and db/db mice): without a change; leptin levels ([1]; DIO mice): not significant; plasma glucagon in DIO, mean [1, 4]: 109 ng/dL; plasma leptin in DIO, mean [1, 4]: 54.89 ng/mL; plasma glucagon in DIO [1, 5]: 116.57 ng/dL and 100.35 ng/dL and 100.46 ng/dL and 94.57 ng/dL and 118.78 ng/dL and 123.34 ng/dL; plasma leptin in DIO [1, 5]: 54.49 ng/mL and 52.07 ng/mL and 53.5 ng/mL and 46.64 ng/mL and 59.49 ng/mL and 63.13 ng/mL; plasma glucagon in DIO, mean ([1]; DIO mice, APC 20mg/kg, group mean, n=6): 102.8 ng/dL; plasma glucagon in DIO [1, 6]: 108 ng/dL and 94.83 ng/dL and 125.84 ng/dL and 81.38 ng/dL and 93.2 ng/dL and 113.74 ng/dL; plasma leptin in DIO [1, 6]: 64.99 ng/mL and 59.47 ng/mL and 49.46 ng/mL and 54.02 ng/mL and 54.7 ng/mL and 57.91 ng/mL; Plasma Insulin, mean ([1]; Figure 8e, APC 10mg/kg, group mean, n=5, VEH mean 5.378): 4.88 ng/mL; Plasma Insulin ([1]; Figure 8e, APC 10mg/kg, individual mice): 5.624 ng/mL and 3.217 ng/mL and 4.483 ng/mL and 6.089 ng/mL and 4.987 ng/mL; Plasma Insulin, mean ([1]; Figure 8e, APC 20mg/kg, group mean, n=5, VEH mean 5.378): 4.334 ng/mL; Plasma Insulin ([1]; Figure 8e, APC 20mg/kg, individual mice): 3.191 ng/mL and 4.624 ng/mL and 5.384 ng/mL and 4.549 ng/mL and 3.923 ng/mL; leptin levels ([1]; db/db mice): effectively reduced; plasma ghrelin ([1]; db/db mice): no significant effects; Plasma Insulin, mean ([1]; db/db mice, group mean, n=6): 12.2 ng/mL; plasma glucagon in db/db, mean ([1]; db/db mice, group mean, n=6): 266 ng/dL; Plasma Insulin ([1]; db/db mice, individual mouse): 9.327 ng/mL and 11.259 ng/mL and 11.886 ng/mL and 10.188 ng/mL and 13.359 ng/mL and 17.190 ng/mL; plasma glucagon in db/db ([1]; db/db mice, individual mouse): 251.14 ng/dL and 274.24 ng/dL and 342.64 ng/dL and 244.9 ng/dL and 187.78 ng/dL and 295.42 ng/dL; plasma Ghrelin in db/db ip APC ([1]; db/db mice, ip APC, single animals): 12.653 ng/mL and 14.269 ng/mL and 10.885 ng/mL and 7.483 ng/mL and 8.587 ng/mL; Plasma leptin, mean of column B (APC) ([1]; db/db mice, group mean (Figure 8l), n=5, VEH mean 1.196): 0.714 ng/mL; Plasma leptin ([1]; db/db mice, individual animals (Figure 8l), n=5): 0.7357 ng/mL and 0.6738 ng/mL and 0.8588 ng/mL and 0.5919 ng/mL and 0.7100 ng/mL; glucose output and Pgc-1α, Pck1 expression in CRTC2-null primary hepatocytes ([2]; glucagon, APC 10 μM): unable to further reduce; glucose output induced by glucagon ([2]; primary hepatocytes, APC 5 μM): reduced; capability for gluconeogenesis (PTT) [3, 7]: significantly inhibited; whole-body insulin sensitivity (GTT and ITT) [3, 7]: greatly enhanced; blood glucose, PTT in DIO, group mean ([3]; DIO mice, 0 mins of PTT, mean of APC group): 98.23 mg/dL; blood glucose, PTT in DIO ([3]; DIO mice, 0 mins of PTT, single animals, n=7): 79.2 mg/dL and 84.6 mg/dL and 104.4 mg/dL and 95.4 mg/dL and 124.2 mg/dL and 122.4 mg/dL and 77.4 mg/dL; blood glucose, PTT in DIO, group mean ([3]; DIO mice, 15 mins of PTT, mean of APC group): 148.9 mg/dL; blood glucose, PTT in DIO ([3]; DIO mice, 15 mins of PTT, single animals, n=7): 135 mg/dl and 153 mg/dl and 190.8 mg/dl and 156.6 mg/dl (2×) and 127.8 mg/dl and 122.4 mg/dl; blood glucose, PTT in DIO, group mean ([3]; DIO mice, 30 mins of PTT, mean of APC group): 191.6 mg/dL; blood glucose, PTT in DIO ([3]; DIO mice, 30 mins of PTT, single animals, n=7): 160.2 mg/dL and 192.6 mg/dL and 210.6 mg/dL and 185.4 mg/dL and 230.4 mg/dL and 187.2 mg/dL and 174.6 mg/dL; blood glucose, PTT in DIO, group mean ([3]; DIO mice, 60 mins of PTT, mean of APC group): 174.9 mg/dL; blood glucose, PTT in DIO ([3]; DIO mice, 60 mins of PTT, single animals, n=7): 129.6 mg/dL and 163.8 mg/dL and 210.6 mg/dL and 156.6 mg/dL and 248.4 mg/dL and 176.4 mg/dL and 138.6 mg/dL; blood glucose, PTT in DIO, group mean ([3]; DIO mice, 120 mins of PTT, mean of APC group): 133.2 mg/dL; blood glucose, PTT in DIO ([3]; DIO mice, 120 mins of PTT, single animals, n=7): 93.6 mg/dl and 126 mg/dl (2×) and 165.6 mg/dl and 178.2 mg/dl and 120.6 mg/dl and 122.4 mg/dl; blood glucose, PTT in DIO, mean over all time points ([3]; DIO mice, Mean of APC, two-way RM ANOVA): 149.3 mg/dL; AUC of PTT, group mean ([3]; DIO mice, mean of APC group, n=7): 631; Total Area of PTT (AUC analysis of PTT) ([3]; DIO mice, single animals, n=7): 511.2 and 614.7 and 747 and 609.3 and 757.8 and 641.7 and 535.5; blood glucose, IGTT, mean ([3]; Figure 8f, IGTT in DIO, 0 mins, group mean, VEH 112.9): 93.09 mg/dL; blood glucose, IGTT ([3]; Figure 8f, IGTT in DIO, 0 mins, individual mice): 109.80 mg/dl (2×) and 84.60 mg/dl (2×) and 72.00 mg/dl and 97.20 mg/dl and 93.60 mg/dl; blood glucose, IGTT, mean ([3]; Figure 8f, IGTT in DIO, 15 mins, group mean, VEH 362.1): 364.4 mg/dL; blood glucose, IGTT ([3]; Figure 8f, IGTT in DIO, 15 mins, individual mice): 243.00 mg/dL and 401.40 mg/dL and 361.80 mg/dL and 469.80 mg/dL and 279.00 mg/dL and 376.20 mg/dL and 419.40 mg/dL; blood glucose, IGTT, mean ([3]; Figure 8f, IGTT in DIO, 30 mins, group mean, VEH 448.5): 358.7 mg/dL; blood glucose, IGTT ([3]; Figure 8f, IGTT in DIO, 30 mins, individual mice): 198.00 mg/dL and 376.20 mg/dL and 453.60 mg/dL and 383.40 mg/dL and 358.20 mg/dL and 468.00 mg/dL and 273.60 mg/dL; blood glucose, IGTT, mean ([3]; Figure 8f, IGTT in DIO, 60 mins, group mean, VEH 351.8): 257.9 mg/dL; blood glucose, IGTT ([3]; Figure 8f, IGTT in DIO, 60 mins, individual mice): 171.00 mg/dL and 248.40 mg/dL and 298.80 mg/dL and 241.20 mg/dL and 307.80 mg/dL and 372.60 mg/dL and 165.60 mg/dL; blood glucose, IGTT, mean ([3]; Figure 8f, IGTT in DIO, 100 mins, group mean, VEH 222.7): 157.1 mg/dL; blood glucose, IGTT ([3]; Figure 8f, IGTT in DIO, 100 mins, individual mice): 140.40 mg/dL and 131.40 mg/dL and 176.40 mg/dL and 138.60 mg/dL and 207.00 mg/dL and 190.80 mg/dL and 115.20 mg/dL; AUC of IGTT, Total Area ([3]; Figure 8f, IGTT in DIO, individual mice): 737.1 and 1134 and 1257 and 1200 and 1097 and 1359 and 958.5; blood glucose, ITT ([3]; Figure 8g, ITT in DIO, 0 mins, individual mice): 163.8 mg/dl (2×) and 151.2 mg/dl and 124.2 mg/dl and 156.6 mg/dl (2×) and 160.2 mg/dl; blood glucose, ITT ([3]; Figure 8g, ITT in DIO, 15 mins, individual mice): 91.8 mg/dL and 75.6 mg/dL and 79.2 mg/dL and 93.6 mg/dL and 97.2 mg/dL and 77.4 mg/dL and 108 mg/dL; blood glucose, ITT ([3]; Figure 8g, ITT in DIO, 30 mins, individual mice): 88.2 mg/dl (2×) and 73.8 mg/dl and 93.6 mg/dl and 82.8 mg/dl and 68.4 mg/dl and 86.4 mg/dl; blood glucose, ITT ([3]; Figure 8g, ITT in DIO, 60 mins, individual mice): 75.6 mg/dL and 88.2 mg/dL and 79.2 mg/dL and 93.6 mg/dL and 81 mg/dL and 61.2 mg/dL and 52.2 mg/dL; blood glucose, ITT ([3]; Figure 8g, ITT in DIO, 100 mins, individual mice): 86.4 mg/dl (2×) and 124.2 mg/dl and 75.6 mg/dl and 88.2 mg/dl (2×) and 50.4 mg/dl; AUC analysis of ITT, Total Area ([3]; Figure 8g, ITT in DIO, individual mice): 380.7 and 389.7 and 337.5 and 396.9 and 383.4 and 333 and 351.9; blood glucose ([3]; Figure 9g, Time 0.0 mins, single animals): 320.4 mg/dL and 340.2 mg/dL and 352.8 mg/dL and 234.0 mg/dL and 396.0 mg/dL; blood glucose ([3]; Figure 9g, Time 30.0 mins, single animals): 345.6 mg/dL and 576.0 mg/dL and 259.2 mg/dL and 268.2 mg/dL and 599.4 mg/dL; blood glucose ([3]; Figure 9g, Time 60.0 mins, single animals): 334.8 mg/dL and 468.0 mg/dL and 158.4 mg/dL and 194.4 mg/dL and 502.2 mg/dL; blood glucose ([3]; Figure 9g, Time 90.0 mins, single animals): 268.2 mg/dL and 486.0 mg/dL and 162.0 mg/dL and 203.4 mg/dL and 419.4 mg/dL; AUC of OGTT, mean ([3]; Figure 9g, db/db, group mean, n 5): 1059; AUC of OGTT ([3]; Figure 9g, db/db, single animals): 974.7 and 1457 and 675 and 681.3 and 1509; OGTT in db/db, column mean of blood glucose ([3]; Figure 9g, mean over all time points and animals, N 20): 344.4 mg/dL
